Experiment: In vitro RF-triggered drug release from Fe@MSN nanoparticles
Type: physicochemical
Conditions: for drug release rate of two drugs compared: release from Fe@MSN under the same RF field
Method: FIGS. 2(A-E) illustrate in vitro evaluation of radiofrequency (RF)-triggered drug release from Fe@MSN nanoparticles. (A) The release of DOX was triggered from Fe@MSN particles using an RF field at different frequencies (1, 20, 50 and 380 kHz; n=4). […] (C) Effect of elevated temperature on the drug release from Fe@MSN particles with an incubation time of 60 min (n=4; unpaired t-test P<0.0001). (D) Drug release from Fe@MSN at different particle concentration under an RF field at 50 kHz. (E) Drug release from Fe@MSN particles at different depths in the RF source (RF field: 50 kHz).
Further, when the temperature of the Fe@MSN suspension was elevated to 60° C. for 60 min by external heating, negligible drug was released ([…]). These two findings indicate that the triggered release mechanism is not based on hyperthermic effects applications, thereby minimizing the role of Neel relaxation phenomenon in RF-triggered drug release from the Fe@MSN nanoparticles.
Similar drug release rate per nanochain particle was observed from suspensions of dramatically different concentrations of Fe@MSN nanoparticles when subjected to the same RF field.
The RF-triggered drug release is nearly independent of the type of drug molecules.

RF-triggered drug release rate (RF field, very low Fe@MSN concentration, 1 or 10 kHz) | Compound | drug release rate of two drugs compared
triggered in a controlled manner | COc1cccc2c1C(=O)c1c(O)c3c(c(O)c1C2=O)C[C@@](O)(C(=O)CO)C[C@@H]3O[C@H]1C[C@H](N)[C@H](O)[C@H](C)O1 [DOX, doxorubicin] | almost identical
– | CC(=N)NCc1cccc(CN)c1 [1400 W] | almost identical
